Measurements: BigSolDB 2.1

Cc1cc(Cl)cc(C(=O)O)c1N
solubility (mole fraction)
Conditions	278.15 K	283.15 K	288.15 K	293.15 K	298.15 K	303.15 K	308.15 K	313.15 K	318.15 K	323.15 K
in acetone	0.0119	0.0131	0.0152	0.0175	0.0199	0.0227	0.0266	0.0315	0.0371	0.0436
in acetonitrile	0.00122	0.00126	0.00139	0.00154	0.00173	0.00198	0.0023	0.0027	0.00331	0.00423
in ethanol	0.00708	0.00736	0.00758	0.00807	0.00867	0.00934	0.0103	0.0114	0.0129	0.0144
in ethyl acetate	0.00636	0.0067	0.0071	0.00769	0.00829	0.00933	0.0105	0.012	0.0138	0.0162
in isopropanol	0.00728	0.00744	0.0077	0.00809	0.00856	0.00911	0.00977	0.0105	0.0114	0.0123
in methanol	0.00128	0.00157	0.00199	0.00241	0.00305	0.00375	0.00452	0.00556	0.00672	0.00815
in n-butanol	0.00553	0.0057	0.00609	0.00648	0.00729	0.0082	0.00931	0.0109	0.0131	0.016
in n-hexane	0.000105	0.000166	0.000245	0.000343	0.000443	0.000558	0.000685	0.000821	0.000959	0.00113
in n-propanol	0.00516	0.00552	0.00579	0.00646	0.0072	0.00803	0.00936	0.0109	0.0128	0.0153
